Patent publication US11345762B2, “Method for preparing liquid medium composition, and preparation device and kit therefor” (NISSAN CHEMICAL INDUSTRIES, LTD., priority 2015, dated 2022)

Legend:
[1] = system: Human pancreatic cancer cell line Panc02,03; experiment: Proliferation action on Panc02,03 cell stimulated by each growth factor (ATP, CellTiter-Glo); format: cell-based
[2] = system: Human lung cancer cell line A549; experiment: A549 cell proliferation suppressive test with anticancer agents in low adhesion plate (ATP, CellTiter-Glo); format: cell-based
Protocol: Deacylated gellan gum (KELCOGEL CG-LA, manufactured by Sansho Co., Ltd.) was suspended in ultra pure water (Milli-Q water) to 0.3% (w/v) or 0.75% (w/v), dissolved by stirring with heating at 90° C., and this aqueous solution was autoclave sterilized at 121° C. for 20 min. Using 0.3% solution, a medium composition was prepared by adding deacylated gellan gum (final concentration 0.015% (w/v)) to DMEM medium (manufactured by WAKO) containing 10% (v/v) fetal bovine serum. Fetal bovine serum was added at 10% (v/v) to a medium composition prepared in Example 7.
Human lung cancer cell line A549 (manufactured by DS PHARMA BIOMEDICAL) was seeded in the above-mentioned medium composition added with deacylated gellan gum (conventional method) or the medium composition of Example 7 at 14800 cells/mL, and dispensed to the wells of a 96 well flat bottom ultra-low adhesive surface microplate (Corning Incorporated manufactured by, #3474) at 135 μL per […]. As a negative control, A549 cells were suspended in the above-mentioned medium free of deacylated gellan gum and dispensed. Each plate was cultured in a static state in a CO2 incubator (37° C., 5% CO2). On day 1 of culture, medium compositions (conventional method and the production method of the present invention) containing each anticancer agent at 10-fold concentration and deacylated gellan gum (final concentration 0.015% (w/v)), and a medium composition containing each anticancer agent alone at 10-fold concentration (non-addition method), 15 μL each, was added to a final concentration of 0.001 to 30 μM, and culture was continued for 7 days. As the anticancer agent, Trametinib (manufactured by Santa Cruz, MEK inhibitor) and MK-2206 (manufactured by Santa Cruz, Akt inhibitor) were used. ATP reagent (150 μL, CellTiter-Glo™ Luminescent Cell Viability Assay, manufactured by Promega) was added to the culture media on days 5 and 8 and suspended therein, stood for about 10 min at room temperature, and the luminescence intensity (RLU value) was measured by FlexStation3 (manufactured by Molecular Devices), from which the luminescence with the medium alone was subtracted to measure the number of viable cells.

[3] = A549, day 4 of static culture, 0.001 μM, conventional method
[4] = A549, day 4 of static culture, 0.001 μM, non-addition method
[5] = A549, day 4 of static culture, 0.001 μM, production method of present invention
[6] = A549, day 4 of static culture, 0.01 μM, conventional method
[7] = A549, day 4 of static culture, 0.01 μM, non-addition method
[8] = A549, day 4 of static culture, 0.01 μM, production method of present invention
[9] = A549, day 7 of static culture, 0.001 μM, conventional method
[10] = A549, day 7 of static culture, 0.001 μM, non-addition method
[11] = A549, day 7 of static culture, 0.001 μM, production method of present invention
[12] = A549, day 7 of static culture, 0.01 μM, conventional method
[13] = A549, day 7 of static culture, 0.01 μM, non-addition method
[14] = A549, day 7 of static culture, 0.01 μM, production method of present invention

| Compound | % control of RLU value (ATP measurement, luminescence intensity) [2, 3] [% Control] | % control of RLU value (ATP measurement, luminescence intensity) [2, 4] [% Control] | % control of RLU value (ATP measurement, luminescence intensity) [2, 5] [% Control] | % control of RLU value (ATP measurement, luminescence intensity) [2, 6] [% Control] | % control of RLU value (ATP measurement, luminescence intensity) [2, 7] [% Control] | % control of RLU value (ATP measurement, luminescence intensity) [2, 8] [% Control] | % control of RLU value (ATP measurement, luminescence intensity) [2, 9] [% Control] | % control of RLU value (ATP measurement, luminescence intensity) [2, 10] [% Control] | % control of RLU value (ATP measurement, luminescence intensity) [2, 11] [% Control] | % control of RLU value (ATP measurement, luminescence intensity) [2, 12] [% Control] | % control of RLU value (ATP measurement, luminescence intensity) [2, 13] [% Control] | % control of RLU value (ATP measurement, luminescence intensity) [2, 14] [% Control] | also measured |
| --- | --- | --- | --- | --- | --- | --- | --- | --- | --- | --- | --- | --- | --- |
| human TGF-β1: growth factor, manufactured by PEPROTECH |  |  |  |  |  |  |  |  |  |  |  |  | % control of RLU value (ATP measurement, luminescence intensity) ([1]; Panc02,03, 3 ng/mL, medium composition of Example 13, on day 6 (head)): 102 % Control; % control of RLU value (ATP measurement, luminescence intensity) ([1]; Panc02,03, 3 ng/mL, monolayer culture group, culture conditions on day 6 (head)): 95 % Control; % control of RLU value (ATP measurement, luminescence intensity) ([1]; Panc02,03, 3 ng/mL, negative control group (medium free of deacylated gellan gum, low adhesion plate), on day 6 (head)): 114 % Control; % control of RLU value (ATP measurement, luminescence intensity) ([1]; Panc02,03, 30 ng/mL, medium composition of Example 13, on day 6 (head)): 106 % Control; % control of RLU value (ATP measurement, luminescence intensity) ([1]; Panc02,03, 30 ng/mL, monolayer culture group, culture conditions on day 6 (head)): 99 % Control; % control of RLU value (ATP measurement, luminescence intensity) ([1]; Panc02,03, 30 ng/mL, negative control group (medium free of deacylated gellan gum, low adhesion plate), on day 6 (head)): 122 % Control |
| CC(=O)Nc1cccc(-n2c(=O)n(C3CC3)c(=O)c3c(Nc4ccc(I)cc4F)n(C)c(=O)c(C)c32)c1 [Trametinib] | 85 | 76 | 82 | 61 | 65 | 57 | 81 | 76 | 76 | 48 | 56 | 45 | % control of RLU value (ATP measurement, luminescence intensity) ([2]; A549, day 4 of static culture, 0.003 μM, conventional method): 65 % Control; % control of RLU value (ATP measurement, luminescence intensity) ([2]; A549, day 4 of static culture, 0.003 μM, non-addition method): 57 % Control; % control of RLU value (ATP measurement, luminescence intensity) ([2]; A549, day 4 of static culture, 0.003 μM, production method of present invention): 60 % Control; % control of RLU value (ATP measurement, luminescence intensity) ([2]; A549, day 4 of static culture, 0.03 μM, conventional method): 40 % Control; % control of RLU value (ATP measurement, luminescence intensity) ([2]; A549, day 4 of static culture, 0.03 μM, non-addition method): 46 % Control; % control of RLU value (ATP measurement, luminescence intensity) ([2]; A549, day 4 of static culture, 0.03 μM, production method of present invention): 41 % Control; % control of RLU value (ATP measurement, luminescence intensity) ([2]; A549, day 7 of static culture, 0.003 μM, conventional method): 52 % Control; % control of RLU value (ATP measurement, luminescence intensity) ([2]; A549, day 7 of static culture, 0.003 μM, non-addition method): 48 % Control; % control of RLU value (ATP measurement, luminescence intensity) ([2]; A549, day 7 of static culture, 0.003 μM, production method of present invention): 48 % Control; % control of RLU value (ATP measurement, luminescence intensity) ([2]; A549, day 7 of static culture, 0.03 μM, conventional method): 25 % Control; % control of RLU value (ATP measurement, luminescence intensity) ([2]; A549, day 7 of static culture, 0.03 μM, non-addition method): 39 % Control; % control of RLU value (ATP measurement, luminescence intensity) ([2]; A549, day 7 of static culture, 0.03 μM, production method of present invention): 24 % Control |
| CC(=O)O[C@H]1C(=O)[C@@]2(C)[C@H]([C@H](OC(=O)c3ccccc3)[C@]3(O)C[C@H](OC(=O)[C@H](O)[C@@H](NC(=O)c4ccccc4)c4ccccc4)C(C)=C1C3(C)C)[C@]1(OC(C)=O)CO[C@@H]1C[C@@H]2O [Paclitaxel] | 98 | 112 | 91 | 31 | 57 | 32 | 90 | 116 | 84 | 12 | 49 | 12 |  |
